Where “and” joins values, the source holds several entries; their conditions need not be identical. Equal entries are not always repeated. Where two headings read alike, the source gives them in different places.
How the values were obtained:
HL-60 cells = assay: AlamarBlue cell growth inhibition, HL-60; assay type: cell-based; settings: Homo sapiens; for IC50: 120 h, HL-60, five days; for EC50: HL-60, 120 h, HL60 (Bcl-2 +, BTK +), 5 days, read-out: Inhibitory effects (EC50)
Description: (§1) K-562 cells (human leukemia) were purchased from ATCC (Manassas, USA). Additional human leukemic cell lines, MOLT-4 and HL-60, were a generous gift from Carrie Cummings at Fred Hutchinson Cancer Research Center (Seattle, USA). All cells were cultured in Gibco RPMI medium 1640 with Gibco 1% 100×Antibiotic-Antimycotic (Thermo Fisher Scientific, Waltham, USA) and 10% fetal bovine serum. Cells were selected for their different protein expression levels of Bruton's Tyrosine Kinase (BTK) and B Cell Lymphoma 2 (Bcl-2); HL-60 cells express both BTK and Bcl-2, while K-562 and MOLT-4 cells only express BTK and Bcl-2, respectively.
(§2) Each cell line was seeded separately into Costar® Black 96-well Assay Plates (Corning USA). Within 1 hr, varying concentrations of individual free drug (ABT-199 or BGB-3111), a combination of both free drugs (w/w 1:1), or a combination of drugs within DcNP's were added to the cells. Following a 5-day incubation, growth of treated cells was compared to untreated cells, quantified using an AlamarBlue Cell Viability Assay (Thermo Fisher Scientific, Waltham, USA) with a PerkinElmer 1420 Multilabel Counter plate reader. Prism graphing software (GraphPad) was used to analyze the absorbance data and to assess relative cell growth.
(§3) The effects of DcNP formulation on the effectiveness of ABT-199 and BGB-3111 to inhibit cells that express Bcl-2 and BTK targets is shown in Table 6. Three immortalized human cell lines were selected based on their expression of Bcl-2 (B-cell lymphoma 2; target of venetoclax) and BTK (Bruton's tyrosine kinase; target of zanubrutinib). Cell lines were seeded in 96-well plates at 75,000 cells per well. In separate sets of wells, venetoclax and zanubrutinib were incubated with the cells for 5 days individually as free drug, together as free drug, and together as the drug combination nanoformulation. An AlamarBlue assay was performed to determine relative inhibition of cell growth due to drug presence.

K-562 cells [1] = assay: AlamarBlue cell growth inhibition, K-562; assay type: cell-based; settings: Homo sapiens; for EC50: 120 h, K562 (Bcl-2 −, BTK +), 5 days, read-out: Inhibitory effects (EC50); for IC50: K562, 120 h, K-562, five days, read-out: IC50 (sensitivity)
Description: as §1, §2, §3

K-562 cells [2] = assay: Leukemic cell uptake of free versus DcNP-associated drug, K-562; assay type: cell-based, human
Description: FIGS. 13A-13D are a series of graphs showing the intracellular drug concentrations following incubation with free or DcNP-bound drug. Three leukemic cell lines were incubated with either free or DcNP-bound drug over four hours, and intracellular drug concentration was measured via LC-MS/MS. Both free drugs show relatively little drug uptake compared to the DcNP formulation. Free drug concentrations are roughly a quarter of the DcNP drug concentrations.
To quantify drug concentrations (both DcNP-bound and free drug), an extraction protocol was established to quantify venetoclax and zanubrutinib. In short, drug was solubilized by diluting the sample into ethyl acetate, liberating it from either the DcNP lipid matrix, mouse plasma, or both. Following centrifugation to remove organic material, the samples were dried with nitrogen gas, reconstituted in acetonitrile, and loaded onto an LC-MS/MS. Drug concentrations were quantified by comparing sample data with standard curves prepared from untreated mouse plasma spiked with known amounts of drug.
Separations were carried out on a Synergi column (100×2.0 mm) (Phenomenex, Torrance, USA). A C8 guard column (4.0×2.0 mm) was used (Phenomenex, USA). The separations were done under ambient temperature, and the flow rate was set to 0.55 ml/min. The mobile phase for the separations consisted of buffers A (water with 20 mM ammonium acetate) and B (acetonitrile). The single mobile phase ran for five minutes, and it consisted of 25% buffer A and 75% buffer B.
HL-60 cells were cultured, counted, and aliquoted into multiple 1.5 mL Eppendorf tubes. A free drug solution of ABT-199 and BGB-3111 (1:1 w/w) was added to half of the tubes, while a DcNP solution of identical drug concentrations was added to the second half of tubes. The cells in the tubes were then allowed to incubate normally. At preselected time points, one incubation tube from each group was removed from the incubator, and the cells inside were washed twice with media to remove external drug and DcNP's. Cells were then lysed with acetonitrile, and drug concentrations were quantified according to the aforementioned extraction and LC-MS/MS protocol.

[3] = Estimating the maximum dissociated fraction of G and T in vivo (Eq. 1, Eq. 2); parameters: species or system BALB/c mice; settings: for maximum dissociated fraction (fdiss. max), Eq. 1: from plasma AUCs of DcNP and CrEL
Excerpt: To estimate a maximum dissociated fraction (fdiss. max) of GT from DcNPs in vivo, a non-compartmental approach based on the plasma AUCs of equi-molar injections of DcNP and CrEL formulations was first utilized: […]
In Eq. 1, it is assumed that systemic clearance of G or T administered as DcNPs only occurs after drug dissociates from the particles, and dissociated drug has the same clearance pathways as the free drug control (CrEL). This non compartmental approach also assumes that drug clearance occurs solely in the central compartment. For the two drugs of interest, T is mainly metabolized in the liver by CYP3A4 and CYP2C8 but G is metabolized by ubiquitous cytidine deaminase (CDA). To understand the impact of the ubiquitous metabolism of G on its pharmacokinetic profile, the plasma concentration of the primary metabolite of G, dFdU, was used as a biomarker for dissociated drug. […] The equation below then provides an estimate of the fraction of the G dose metabolized to dFdU. If the calculated fraction metabolized (fdiss.G→dFdU) from Eq. 2 equals the fdiss. max from Eq. 1, it can be surmised that once G is released from DcNPs at all locations in the body it exchanges readily with the circulating G and subsequently undergoes metabolism (i.e., metabolism of all dissociated drug occurs in the central compartment). However, if some or all of the drug released from DcNPs in peripheral tissue is immediately metabolized to dFdU without exchanging with G in circulation, the fdiss.G→dFdU estimates from Eq. 2 would be expected to exceed the fdiss. max from Eq. 1 (i.e., dissociated drug is metabolized in both the central and peripheral compartments).
G AUC0→∞,CrEL is the plasma AUC of G given in free drug form. G AUC0→∞,DcNP is the total AUCs of associated and dissociated G given in DcNP form. dFdU AUC0→∞, CrEL is the AUC of dFdU formed after administration of free G. dFdU AUC0→∞,DcNP is the AUC of dFdU after dosing G in DcNP, which reflects the amount of dissociated G released from DcNPs and available for metabolic conversion. fdiss.G→dFdU represents the fraction of DcNP-dose that is released as free drug and available for conversion to dFdU by CDA.
The assumptions underlying Eq. 2 are as follows: [1] Dissociated (free) G, but not associated G, is readily available for metabolism by CDA. Dissociated G is rapidly and extensively metabolized to dFdU by CDA. […] A detailed pharmacokinetic model for the associated and dissociated species will be presented next to simulate the in vivo association of both drugs.

[4] = K-562, incubation with free drug

| SMILES | IC50 (HL-60 cells; read-out: IC50) | EC50 (HL-60 cells) | EC50 (K-562 cells [1]) | IC50 (K-562 cells [1]) | peak intracellular drug concentration (K-562 cells [2]; K-562, incubation with DcNP's) | peak intracellular drug concentration (K-562 cells [2]; [4]) | in vivo association to DcNPs per Eq. 1 ([3]; GT DcNP IV) | maximum dissociated fraction (fdiss. max), Eq. 1 ([3]; GT DcNP IV) | IC50 (HL-60 cells; read-out: IC50 (sensitivity)) | fraction of dissociated G accessible for metabolism (fdiss.G→dFdU), Eq. 2 ([3]; GT DcNP IV) | G in DcNP dosage form not accessible for dFdU conversion / remaining associated to DcNPs in vivo ([3]; after IV GT-DcNP administration, listed as G) |
| --- | --- | --- | --- | --- | --- | --- | --- | --- | --- | --- | --- |
| CC1(C)CCC(CN2CCN(c3ccc(C(=O)NS(=O)(=O)c4ccc(NCC5CCOCC5)c([N+](=O)[O-])c4)c(Oc4cnc5[nH]ccc5c4)c3)CC2)=C(c2ccc(Cl)cc2)C1 [Venetoclax, 4-[4-[[2-(4-chlorophenyl)-4,4-dimethylcyclohexen-1-yl]methyl]piperazin-1-yl]-N-[3-nitro-4-(oxan-4-ylmethylamino)phenyl]sulfonyl-2-(1H-pyrrolo[2,3-b]pyridin-5-yloxy)benzamide] | 0.00192 µg/mL | 0.0019 µg/mL | 16 µg/mL | 15.9 µg/mL | 647 ng/million cells | 192 ng/million cells |  |  |  |  |  |
| CC(=O)O[C@H]1C(=O)[C@@]2(C)[C@H]([C@H](OC(=O)c3ccccc3)[C@]3(O)C[C@H](OC(=O)[C@H](O)[C@@H](NC(=O)c4ccccc4)c4ccccc4)C(C)=C1C3(C)C)[C@]1(OC(C)=O)CO[C@@H]1C[C@@H]2O [Paclitaxel, [(1S,2S,3R,4S,7R,9S,10S,12R,15S)-4,12-diacetyloxy-15-[(2R,3S)-3-benzamido-2-hydroxy-3-phenylpropanoyl]oxy-1,9-dihydroxy-10,14,17,17-tetramethyl-11-oxo-6-oxatetracyclo[11.3.1.0^3,10.0^4,7]heptadec-13-en-2-yl] benzoate] |  |  |  |  |  |  | > 75% | 26.6% |  |  |  |
| C=CC(=O)N1CCC([C@@H]2CCNc3c(C(N)=O)c(-c4ccc(Oc5ccccc5)cc4)nn32)CC1 [Zanubrutinib, (7S)-2-(4-phenoxyphenyl)-7-(1-prop-2-enoylpiperidin-4-yl)-4,5,6,7-tetrahydropyrazolo[1,5-a]pyrimidine-3-carboxamide] |  | 10 µg/mL | 8.4 µg/mL | 8.3 µg/mL | 647 ng/million cells | 109 ng/million cells |  |  | 10.3 µg/mL |  |  |
| Nc1ccn([C@@H]2O[C@H](CO)[C@@H](O)C2(F)F)c(=O)n1 [Gemcitabine, 4-amino-1-[(2R,4R,5R)-3,3-difluoro-4-hydroxy-5-(hydroxymethyl)oxolan-2-yl]pyrimidin-2-one] |  |  |  |  |  |  | > 98% | 1.6% |  | 8% | 92% and > 92% |
